Here are results for seven compounds from PubChem BioAssay (NCI).

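Five concentrations, 48 hours, 96-well plates. GI50 = concentration required for 50% inhibition of growth. The concentration for full growth arrest is given as TGI.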

Some test systems named below: T-47D breast; SW-620 colon; UO-31 renal; NCI-H522 lung; 786-0 renal; OVCAR-8 ovarian; HCC-2998 colon; SK-MEL-5 melanoma; NCI-H460 lung; OVCAR-3 ovarian.
What all share (assay): growth of human tumour cells (NCI), 48 h

In the case of `Cc1ccc(/C=C(\C#N)n2nnc3cc(F)c(F)cc32)cc1`, the GI50 in the assay with T-47D breast is 1.19 µM; in the assay on SW-620 colon, 0.891 µM; in the assay with UO-31 renal, 2.8 µM; in the assay with NCI-H522 lung, 0.291 µM; in the assay with 786-0 renal, 2.5 µM; with OVCAR-8 ovarian, 2.26 µM. The GI50 with HCC-2998 colon was 2.96 µM; in the assay with SK-MEL-5 melanoma, 3.65 µM; with NCI-H460 lung, 3.52 µM; with OVCAR-3 ovarian, 1.47 µM. Moreover, the TGI with T-47D breast came to 5.39 µM; in the assay on SW-620 colon it was 11.2 µM; in the assay with UO-31 renal it was 14.2 µM; in the assay with NCI-H522 lung it was 1.12 µM; in the assay with 786-0 renal, 11.9 µM; in the assay on OVCAR-8 ovarian, 6.93 µM. Also, the TGI in the assay on HCC-2998 colon worked out at 11.6 µM; in the assay on SK-MEL-5 melanoma, 14.2 µM; in the assay on NCI-H460 lung it was 11.3 µM; in the assay on OVCAR-3 ovarian it was 6.08 µM.

For `CC(C)(C)c1ccc(-c2nnc(SCc3ccc(Cl)cc3)n2-c2cccc(C(F)(F)F)c2)cc1`, the TGI in the assay with T-47D breast is above 100 µM; in the assay on SW-620 colon, above 100 µM; in the assay with UO-31 renal, 34.2 µM; with NCI-H522 lung it was above 100 µM; with 786-0 renal, above 100 µM; with OVCAR-8 ovarian, above 100 µM. The TGI in the assay on HCC-2998 colon was above 62.4 µM; in the assay with SK-MEL-5 melanoma, above 100 µM; in the assay with NCI-H460 lung it was above 100 µM; in the assay on OVCAR-3 ovarian, 16.8 µM.

Consider `CO/N=C1/c2cc(OC)ccc2-c2c(NOC)nc3ccccc3c21`, for which the GI50 in the assay with T-47D breast was 41.2 µM; with SW-620 colon, 60.1 µM; with UO-31 renal, 35.4 µM; in the assay on NCI-H522 lung it was 26.6 µM; in the assay on 786-0 renal it was 17.7 µM; in the assay on OVCAR-8 ovarian, 10.3 µM. In addition, the GI50 was 35.6 µM in the assay with HCC-2998 colon, 13.9 µM in the assay with SK-MEL-5 melanoma, 29.5 µM in the assay with NCI-H460 lung and 49.2 µM in the assay with OVCAR-3 ovarian. Also, the TGI in the assay with T-47D breast was above 100 µM; with SW-620 colon, above 100 µM; with UO-31 renal, above 100 µM; in the assay with NCI-H522 lung it was above 100 µM; in the assay with 786-0 renal, 34.2 µM; in the assay with OVCAR-8 ovarian it was 37 µM. The TGI with HCC-2998 colon is above 100 µM; in the assay with SK-MEL-5 melanoma, 36 µM; with NCI-H460 lung it was above 100 µM; in the assay on OVCAR-3 ovarian, above 100 µM.

In the case of `CCOc1ccc2c(c1)/C(=C\C=C\C1CC(C)C3CC(OCC)CCC3N1CC)CC(C)N2CC` (stereo not given), the GI50 in the assay with T-47D breast is 0.334 µM; in the assay on SW-620 colon, 0.73 µM; in the assay on UO-31 renal, 1.59 µM; in the assay on NCI-H522 lung, 0.852 µM; in the assay with 786-0 renal it was 1.49 µM; in the assay on OVCAR-8 ovarian, 0.61 µM. The GI50 with HCC-2998 colon was 1.05 µM; in the assay with SK-MEL-5 melanoma, 0.702 µM; with NCI-H460 lung, 0.416 µM; in the assay with OVCAR-3 ovarian, 0.915 µM. The TGI in the assay on T-47D breast worked out at 2.12 µM; with SW-620 colon it was 2.59 µM; in the assay on UO-31 renal it was 3.31 µM; with NCI-H522 lung, 3.08 µM; in the assay with 786-0 renal, 2.98 µM; in the assay on OVCAR-8 ovarian, 2.19 µM. The TGI in the assay on HCC-2998 colon amounted to 2.42 µM; with SK-MEL-5 melanoma, 2.01 µM; with NCI-H460 lung, 1.64 µM; in the assay with OVCAR-3 ovarian, 2.2 µM.

Turning to `Cc1ccccc1NC(=O)NC(CC(N)=O)c1ccc2c(c1)nc(-c1cccc(Oc3ccc(C(C)(C)C)cc3)c1)n2CCCN1CCCCC1C` (stereo not given), the GI50 in the assay with T-47D breast was 2.6 µM; in the assay on SW-620 colon, 1.84 µM; in the assay on UO-31 renal, 16.4 µM; in the assay on NCI-H522 lung, 1.88 µM; with 786-0 renal it was 4.19 µM; with OVCAR-8 ovarian, 2.44 µM. The GI50 was 2.23 µM in the assay on HCC-2998 colon, 1.73 µM with SK-MEL-5 melanoma, 2 µM with NCI-H460 lung and 2.57 µM in the assay on OVCAR-3 ovarian. The TGI with T-47D breast stood at 10.5 µM; in the assay on SW-620 colon, 3.49 µM; in the assay on UO-31 renal it was 31.9 µM; in the assay on NCI-H522 lung, 3.57 µM; in the assay on 786-0 renal it was 8.66 µM; in the assay with OVCAR-8 ovarian it was 6.63 µM. Moreover, the TGI in the assay with HCC-2998 colon worked out at 5.04 µM; in the assay on SK-MEL-5 melanoma it was 3.19 µM; in the assay on NCI-H460 lung, 3.87 µM; in the assay on OVCAR-3 ovarian, 6.35 µM.

`COc1ccc(C2CC(c3cc(OC)c(OC)c(OC)c3)=NN2)cc1` (stereo not given): the GI50 in the assay with T-47D breast was 3.61 µM; in the assay on SW-620 colon, 4.58 µM; in the assay on UO-31 renal it was 4.82 µM; with NCI-H522 lung, 3.43 µM; in the assay with 786-0 renal, 20.7 µM; with OVCAR-8 ovarian it was 28.4 µM. Also, the GI50 in the assay on HCC-2998 colon was 9.35 µM; in the assay with SK-MEL-5 melanoma, 4.29 µM; with NCI-H460 lung, 3.47 µM; in the assay on OVCAR-3 ovarian, 3.74 µM. The TGI in the assay on T-47D breast was above 100 µM; in the assay with SW-620 colon, above 100 µM; in the assay on UO-31 renal it was above 100 µM; with NCI-H522 lung it was 35.9 µM; in the assay with 786-0 renal, above 100 µM; in the assay on OVCAR-8 ovarian, above 100 µM. The TGI in the assay on HCC-2998 colon stood at 37.2 µM; in the assay with SK-MEL-5 melanoma, 17.8 µM; in the assay on NCI-H460 lung it was 30.1 µM; in the assay on OVCAR-3 ovarian, 55.3 µM.

As for `COc1cc(/C=C/C(=O)c2ccc(Nc3nc(Nc4ccc(F)cc4)nc(Nc4ccc(F)cc4)n3)cc2)cc(OC)c1OC`, the GI50 with T-47D breast is 5.76 µM; with SW-620 colon, 7.28 µM; in the assay on UO-31 renal, 3.75 µM; with NCI-H522 lung, 3.1 µM; with 786-0 renal it was 2.66 µM; with OVCAR-8 ovarian, 1.94 µM. Moreover, the GI50 was 27.7 µM with HCC-2998 colon, 3.4 µM in the assay with SK-MEL-5 melanoma, 7.92 µM in the assay with NCI-H460 lung and above 100 µM in the assay on OVCAR-3 ovarian. For the same compound, the TGI in the assay on T-47D breast was above 100 µM; with SW-620 colon, above 100 µM; in the assay with UO-31 renal, above 100 µM; in the assay with NCI-H522 lung it was above 100 µM; in the assay on 786-0 renal it was 12 µM; in the assay with OVCAR-8 ovarian, above 100 µM. The TGI in the assay on HCC-2998 colon was above 100 µM; with SK-MEL-5 melanoma it was 30.4 µM; in the assay with NCI-H460 lung, above 100 µM; in the assay on OVCAR-3 ovarian, above 100 µM.
